According to US20030003440A1, “Novel CCR5 epitope and antibodies against it” (priority 2001, published 2003):

Key:
anti-CCR5 Abs = assay: Epitope mapping of anti-CCR5 Abs on peptide/beads, assayed in the Mip1β binding inhibition assay; parameters: species or system human; conditions: for Binding of anti-CCR5 Abs to peptide: Abs from ESN sera bound to peptide/beads, eluted, tested in Mip1β binding inhibition assay, FIG. 1
Protocol: Coupling of CCR5 peptides to tosyl-activated Dynabeads M280 (Dynal, Oslo, Norway) was obtained following standard procedures. Briefly, 3×10^7 beads were incubated with 9 μg of CCR5 peptides in 50 mM borate buffer pH 9,5 (16 h at 37° C.). After 4 washes in PBS, peptide/beads were ready for use.
Binding of anti-CCR5 specific Igs to peptide/beads was obtained by incubating 9 μg Ig's to 9 μg peptide/beads for 1 h at 4° C. Ig's were eluted in 0.5 M acetic acid, dialyzed against RPMI medium, then tested in Mip1β binding assays and/or in HIV neutralization assays. To establish if the region recognized by anti-CCR5 antibodies corresponds to a conformational epitope, the specific peptide/beads were incubated with 10 mM of βME, and subsequently with 300 mM of N-Ethyl Maleimide (final concentration: 30 mM) for 60 min prior to antibody binding.
The assay was performed as described (Trkola, A. et al., 1996, Nature 384:184). Briefly, 10^6 purified CD4^+ cells in 200 μl of RPMI (Gibco-Life Technologies, Milan, Italy)(containing 0.05 M NaN3, 1% BSA and 25 mM HEPES) were incubated with appropriate dilutions of affinity-purified anti-CCR5 Abs (Example 1); after 45 min of incubation ^125I-Mip1β (Dupont-NEN, Mechelem, Belgium) was added (final concentration 0.1 nM, 0.2 μCi), and the cells were further incubated for 2 h on ice. Unbound radioactivity was separated by centrifugation on a two-step gradient (Grassi, F. et al., 1991, J. Exp. Med. 174:53) in 0.3 ml tubes (Nunc, Roskilde, Denmark) as follows: the lower layer consisted of fetal calf serum (FCS) containing 10% sucrose; the upper layer consisted of 80% silicone (Sigma-Aldrich) and 20% mineral oil (Sigma-Aldrich). The bound radioactivity in the cell pellets was measured in a gamma counter. Serum samples were diluted 1:10 (5 replicas for each sample). A specificity control consisting of a 100-fold excess of unlabeled Mip1β was included in all experiments. The binding of the ^125I-Mip1β to activated CD4^+ cells ranged between 1000 and 6000 CPM. The cut-off value was set at 12% (3 SD above the mean value of the 45 USN serum samples).

peptide 3 from CCR5 = biological target: T1, peptide 3 from CCR5 (Homo sapiens, UniProt P51681); assay: Immunization of mice with KLH-conjugated peptide; binding of mice sera to peptide 3 by ELISA; type: in vivo; conditions: BALB/c mice, i.p. every 15 days, three immunizations, KLH conjugate 50 μg/dose; FIG. 3
T1 construct: made in house; host or cells: chemical solid-phase synthesis
Protocol: BALB/c mice were immunized i.p. every 15 days with peptide 3 or with an unrelated control peptide (VQGEESNDK); both peptides had previously been conjugated to KLH (50 μg/dose). Serum was monitored for the presence of antibodies against the immunogens. After three immunizations the mice were sacrificed and sera were tested in direct binding on pep 3.
Binding of mice sera to peptide 3 was obtained by ELISA. Microwells plates were coated with Beads/pep 3 (10^7beads). The plates were satured for 1 h with PBS and 3% BSA. Different dilutions of mice antisera ( 1/10, 1/50, 1/250 and 1/1000) were added and incubated for 2 h at r.t. […] The enzimatic reaction was developed and read at 492 nm.

Binding of anti-CCR5 Abs to peptide (anti-CCR5 Abs)	Binding on pep 3 of sera of immunized mice (ELISA) (peptide 3 from CCR5)	Binding of anti-CCR5 Abs to peptide after reduction and alkylation (anti-CCR5 Abs; addition of 2-ME and N-ethyl maleimide)	Substance
no binding			CSSHFPYSQYQFWKNFQTLKc [compound 4]
no binding			FQEFFGLNNCSSSNR [compound 5, peptide of the extramembrane region of CCR5]
Specific Ab binding	specific binding	abolished	cYAAAQWDFGNTMCQ (N-terminal Cys added; UniProt P51681 89-102, looked up, fragment) [peptide 3, second external domain of CCR5 (first cysteine loop, aa 89-102) with Cys added at the N-terminus]
	no binding		VQGEESNDK [control peptide, unrelated control peptide conjugated to KLH, reference compound]
no binding			cMDYQVSSPIYDINYYTSEPC [compound 1]
no binding			YYTSEPCQKINVKQIAARLLP [compound 2, peptide of the extramembrane region of CCR5]
